Laboratory results published in patent US12458021B2, “Microbiocidal derivatives” (SYNGENTA CROP PROTECTION AG, priority 2019, dated 2025).

Columns and labels:
[1] = tested on: Glomerella lagenarium (Colletotrichum lagenarium); assay: Glomerella lagenarium (Colletotrichum lagenarium) / liquid culture (anthracnose); type: cell-based; details: Colletotrichum orbiculare, PDB potato dextrose broth, 24° C., 3-4 days after application, read-out: control of Glomerella lagenarium (inhibition of growth, photometric)
Method in brief: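 Conidia from cryogenic storage suspended in potato dextrose broth and added to DMSO compound solution in plates. Incubated at 24° C; growth inhibition read photometrically 3-4 days after application.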

[2] = tested on: Puccinia recondita f. sp. tritici; assay: Puccinia recondita f. sp. tritici / wheat / leaf disc preventative (brown rust); type: in vivo; details: foliar, wheat leaf segments cv. Kanzler, inoculated 1 day after application, assessed 7-9 days after application, read-out: control of Puccinia recondita f. sp. tritici, preventative (percent disease control compared to untreated)
Experimental: Example B11: Puccinia recondita f. sp. tritici/Wheat/Leaf Disc Preventative (Brown Rust) Wheat leaf segments cv. Kanzler are placed on agar in multiwell plates (24-well format) and sprayed with the formulated test compound diluted in water. The leaf disks are inoculated with a spore suspension of the fungus 1 day after application. The inoculated leaf segments are incubated at 19° C. and 75% rh under a light regime of 12 h light/12 h darkness in a climate cabinet and the activity of a compound is assessed as percent disease control compared to untreated when an appropriate level of disease damage appears in untreated check leaf segments (7-9 days after application). […] […]-190.

[3] = tested on: Blumeria graminis f. sp. tritici (Erysiphe graminis f. sp. tritici); assay: Blumeria graminis f. sp. tritici / wheat / leaf disc preventative (powdery mildew on wheat); type: in vivo; details: foliar, wheat leaf segments cv. Kanzler, inoculated 1 day after application, assessed 6-8 days after application, read-out: control of Blumeria graminis f. sp. tritici (percent disease control compared to untreated)
Text: Example B4: Blumeria graminis f. sp. tritici (Erysiphe graminis f. sp. tritici)/Wheat/Leaf Disc Preventative (Powdery Mildew on Wheat) Wheat leaf segments cv. Kanzler are placed on agar in a multiwell plate (24-well format) and sprayed with the formulated test compound diluted in water. The leaf disks are inoculated by shaking powdery mildew infected plants above the test plates 1 day after application. […] […]-192.

[4] = tested on: Mycosphaerella graminicola (Septoria tritici); assay: Mycosphaerella graminicola (Septoria tritici) / liquid culture (Septoria blotch); type: cell-based; details: Zymoseptoria tritici, PDB potato dextrose broth, 24° C., 4-5 days after application, read-out: control of Mycosphaerella graminicola (inhibition of growth, photometric)
Method in brief: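 Conidia from cryogenic storage were mixed into potato dextrose broth and added to test compound in DMSO. Plates were incubated at 24° C, and growth inhibition was read photometrically 4-5 days after application.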

[5] = tested on: Magnaporthe grisea (Pyricularia oryzae); assay: whole plant or invertebrate; type: in vivo; details: foliar, read-out: control of Magnaporthe grisea (percent disease control compared to untreated)
[6] = tested on: Monographella nivalis (Microdochium nivale); assay: Monographella nivalis (Microdochium nivale) / liquid culture (foot rot cereals); type: cell-based; details: PDB potato dextrose broth, 24° C., 4-5 days after application, read-out: control of Monographella nivalis (inhibition of growth, photometric)
Method in brief: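 Cryostored M. nivalis conidia mixed into potato dextrose broth and added to 96-well plates holding test compound in DMSO. Incubated at 24° C; growth inhibition read photometrically 4-5 days after application.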

[7] = tested on: Alternaria solani; assay: Alternaria solani / tomato / leaf disc (early blight); type: in vivo; details: foliar, tomato leaf disks cv. Baby, inoculated 2 days after application, assessed 5-7 days after application, read-out: control of Alternaria solani (percent disease control compared to untreated)
Experimental: Example B1: Alternaria solani/Tomato/Leaf Disc (Early Blight) Tomato leaf disks cv. Baby are placed on agar in multiwell plates (24-well format) and sprayed with the formulated test compound diluted in water. The leaf disks are inoculated with a spore suspension of the fungus 2 days after application. The inoculated leaf disks are incubated at 23° C./21° C. […] […]-185.

[8] = tested on: Pyrenophora teres; assay: Pyrenophora teres / barley / leaf disc preventative (net blotch); type: in vivo; details: foliar, barley leaf segments cv. Hasso, inoculated 2 days after application, assessed 5-7 days after application, read-out: control of Pyrenophora teres (disease control compared to untreated)
Experimental: Example B13: Pyrenophora teres/Barley/Leaf Disc Preventative (Net Blotch) Barley leaf segments cv. Hasso are placed on agar in a multiwell plate (24-well format) and sprayed with the formulated test compound diluted in water. The leaf segments are inoculated with a spore suspension of the fungus 2 days after application. The inoculated leaf segments are incubated at 20° C. and 65% rh under a light regime of 12 h light/12 h darkness in a climate cabinet and the activity of a compound is assessed as disease control compared to untreated when an appropriate level of disease damage appears in untreated check leaf segments (5-7 days after application). […] […]-185.

[9] = tested on: Mycosphaerella arachidis (Cercospora arachidicola); assay: Mycosphaerella arachidis (Cercospora arachidicola) / liquid culture (early leaf spot); type: cell-based; details: PDB potato dextrose broth, 24° C., 4-5 days after application, read-out: control of Mycosphaerella arachidis (inhibition of growth, photometric)
Experimental: Example B8: Mycosphaerella arachidis (Cercospora arachidicola)/Liquid Culture (Early Leaf Spot) Conidia of the fungus from cryogenic storage are directly mixed into nutrient broth (PDB potato dextrose broth). After placing a (DMSO) solution of test compound into a microtiter plate (96-well format), the nutrient broth containing the fungal spores is added. The test plates are incubated at 24° C. and the inhibition of growth is determined photometrically 4-5 days after application. […] […]-180.

[10] = tested on: Phaeosphaeria nodorum (Septoria nodorum); assay: Phaeosphaeria nodorum (Septoria nodorum) / wheat / leaf disc preventative (glume blotch); type: in vivo; details: Parastagonospora nodorum, foliar, wheat leaf segments cv. Kanzler, inoculated 2 days after application, assessed 5-7 days after application, read-out: control of Phaeosphaeria nodorum (percent disease control compared to untreated)
Experimental: Example B6: Phaeosphaeria nodorum (Septoria nodorum)/Wheat/Leaf Disc Preventative (Glume Blotch) Wheat leaf segments cv. Kanzler are placed on agar in a multiwell plate (24-well format) and sprayed with the formulated test compound diluted in water. The leaf disks are inoculated with a spore suspension of the fungus 2 days after application. The inoculated test leaf disks are incubated at 20° C. and 75% rh under a light regime of 12 h light/12 h darkness in a climate cabinet and the activity of a compound is assessed as percent disease control compared to untreated when an appropriate level of disease damage appears in untreated check leaf disks (5-7 days after application). […] […]-190.

COc1ccc(Nc2cc(F)nc(F)c2)nc1C(=O)NC1(C)CCCCC1 [Compound P-110, 6-[(2,6-difluoro-4-pyridyl)amino]-3-methoxy-N-(1-methylcyclohexyl)pyridine-2-carboxamide]
≥ 80%: inhibition at 20 ppm [1] | pest or weed control at 200 ppm [2] | pest or weed control at 200 ppm [3] | inhibition at 20 ppm [4] | pest or weed control at 200 ppm [5] | inhibition at 20 ppm [6] | pest or weed control at 200 ppm [7]

COc1ccc(Nc2cc(F)cc(F)c2)nc1C(=O)NC1C2CCOC2C1(C)C (stereo not drawn) [Compound P-76, 6-(3,5-difluoroanilino)-N-(7,7-dimethyl-2-oxabicyclo[3.2.0]heptan-6-yl)-3-methoxy-pyridine-2-carboxamide]
≥ 80%: inhibition at 20 ppm [1] | pest or weed control at 200 ppm [2] | pest or weed control at 200 ppm [3] | inhibition at 20 ppm [4] | pest or weed control at 200 ppm [5] | pest or weed control at 200 ppm [8] | inhibition at 20 ppm [6] | pest or weed control at 200 ppm [7]

COc1ccc(Nc2cc(F)cc(F)c2)nc1C(=O)NC1COC2(CC2)C1 (stereo not drawn) [Compound P-70, 6-(3,5-difluoroanilino)-3-methoxy-N-(4-oxaspiro[2.4]heptan-6-yl)pyridine-2-carboxamide]
≥ 80%: inhibition at 20 ppm [1] | pest or weed control at 200 ppm [2] | pest or weed control at 200 ppm [3] | inhibition at 20 ppm [4] | pest or weed control at 200 ppm [5] | inhibition at 20 ppm [6] | pest or weed control at 200 ppm [7]

COc1ccc(Nc2cnsc2)nc1C(=O)NC1CCc2cc(C(F)(F)F)ccc21 (stereo not drawn) [Compound P-79, 6-(isothiazol-4-ylamino)-3-methoxy-N-[5-(trifluoromethyl)indan-1-yl]pyridine-2-carboxamide]
≥ 80%: inhibition at 20 ppm [1] | pest or weed control at 200 ppm [2] | inhibition at 20 ppm [4] | inhibition at 20 ppm [9] | inhibition at 20 ppm [6]

COc1ccc(Nc2cccc(C#N)c2)nc1C(=O)NC(C)(C)C [Compound P-146, N-tert-butyl-6-(3-cyanoanilino)-3-methoxy-pyridine-2-carboxamide]
≥ 80%: inhibition at 20 ppm [1] | pest or weed control at 200 ppm [10] | pest or weed control at 200 ppm [2] | inhibition at 20 ppm [4] | pest or weed control at 200 ppm [5] | inhibition at 20 ppm [6] | pest or weed control at 200 ppm [7]

COc1ccc(Nc2cc(F)nc(F)c2)nc1C(=O)NC1CCC12CCCC2 (stereo not drawn) [Compound P-6, 6-[(2,6-difluoro-4-pyridyl)amino]-3-methoxy-N-spiro[3.4]octan-3-yl-pyridine-2-carboxamide]
≥ 80%: inhibition at 20 ppm [1] | pest or weed control at 200 ppm [2] | pest or weed control at 200 ppm [3] | inhibition at 20 ppm [4] | pest or weed control at 200 ppm [5] | pest or weed control at 200 ppm [8] | inhibition at 20 ppm [6] | pest or weed control at 200 ppm [7]

COc1ccc(Nc2cc(F)cc(F)c2)nc1C(=O)NCc1ccccc1 [Compound P-25, N-benzyl-6-(3,5-difluoroanilino)-3-methoxy-pyridine-2-carboxamide]
≥ 80%: inhibition at 20 ppm [1] | pest or weed control at 200 ppm [10] | pest or weed control at 200 ppm [2] | pest or weed control at 200 ppm [3] | inhibition at 20 ppm [4] | pest or weed control at 200 ppm [5] | inhibition at 20 ppm [6]

COc1ccc(Nc2cc(F)nc(F)c2)nc1C(=O)NC(C)CCCC(C)C (stereo not drawn) [Compound P-102, 6-[(2,6-difluoro-4-pyridyl)amino]-N-(1,5-dimethylhexyl)-3-methoxy-pyridine-2-carboxamide]
≥ 80%: inhibition at 20 ppm [1] | pest or weed control at 200 ppm [2] | inhibition at 20 ppm [4] | pest or weed control at 200 ppm [5] | pest or weed control at 200 ppm [8] | inhibition at 20 ppm [9] | inhibition at 20 ppm [6]

COc1ccc(Nc2cc(F)cc(F)c2)nc1C(=O)NC1CCc2ccc(C(F)(F)F)cc21 (stereo not drawn) [Compound P-56, 6-(3,5-difluoroanilino)-3-methoxy-N-[6-(trifluoromethyl)indan-1-yl]pyridine-2-carboxamide]
≥ 80%: inhibition at 20 ppm [1] | pest or weed control at 200 ppm [10] | pest or weed control at 200 ppm [2] | inhibition at 20 ppm [4] | inhibition at 20 ppm [9] | inhibition at 20 ppm [6] | pest or weed control at 200 ppm [7]

CC1(C)CCC1NC(=O)c1nc(Nc2cc(F)cc(F)c2)ccc1OC(F)F (stereo not drawn) [Compound P-46, 6-(3,5-difluoroanilino)-3-(difluoromethoxy)-N-(2,2-dimethylcyclobutyl)pyridine-2-carboxamide]
≥ 80%: inhibition at 20 ppm [1] | pest or weed control at 200 ppm [10] | inhibition at 20 ppm [4] | pest or weed control at 200 ppm [5] | inhibition at 20 ppm [9] | inhibition at 20 ppm [6]

COc1ccc(Nc2cc(F)nc(F)c2)nc1C(=O)NCCC(C)C [Compound P-29, 6-[(2,6-difluoro-4-pyridyl)amino]-N-isopentyl-3-methoxy-pyridine-2-carboxamide]
≥ 80%: inhibition at 20 ppm [1] | pest or weed control at 200 ppm [2] | pest or weed control at 200 ppm [3] | inhibition at 20 ppm [4] | pest or weed control at 200 ppm [5] | pest or weed control at 200 ppm [8] | inhibition at 20 ppm [6]

COc1ccc(Nc2cc(F)cc(F)c2)nc1C(=O)NCCOc1ccc(F)cc1 [Compound P-27, 6-(3,5-difluoroanilino)-N-[2-(4-fluorophenoxy)ethyl]-3-methoxy-pyridine-2-carboxamide]
≥ 80%: inhibition at 20 ppm [1] | pest or weed control at 200 ppm [10] | pest or weed control at 200 ppm [2] | inhibition at 20 ppm [4] | pest or weed control at 200 ppm [5] | inhibition at 20 ppm [9] | inhibition at 20 ppm [6]

COc1ccc(Nc2cnsc2)nc1C(=O)NC(C)CCCC(C)C (stereo not drawn) [Compound P-36, N-(1,5-dimethylhexyl)-6-(isothiazol-4-ylamino)-3-methoxy-pyridine-2-carboxamide]
≥ 80%: inhibition at 20 ppm [1] | inhibition at 20 ppm [4] | inhibition at 20 ppm [9] | inhibition at 20 ppm [6]

COc1ccc(Nc2cc(F)cc(F)c2)nc1C(=O)NCC(C)c1ccccc1 (stereo not drawn) [Compound P-23, 6-(3,5-difluoroanilino)-3-methoxy-N-(2-phenylpropyl)pyridine-2-carboxamide]
≥ 80%: inhibition at 20 ppm [1] | pest or weed control at 200 ppm [2] | inhibition at 20 ppm [4] | pest or weed control at 200 ppm [5] | inhibition at 20 ppm [9] | inhibition at 20 ppm [6]
